Values quoted from earlier work, collected in patent US6475716B1, “Method for preserving mammalian organs” (Biobank Co., Ltd., priority 2001, dated 2002).

Tested on: cell membranes of the heart
Details: heart exposed to low temperature of 4° C. or ischemic injury

OC[C@H]1O[C@H](O[C@H]2O[C@H](CO)[C@@H](O)[C@H](O)[C@H]2O)[C@H](O)[C@@H](O)[C@@H]1O [trehalose]
protection of cell membranes of the heart: had the ability to protect cell membranes of the heart
